From US8535693B2, “Topical formulation(s) for the treatment of inflammation, skin and mucosal disorders and other diseases thereof” (Laila Pharmaceuticals Private Limited, priority 2008, dated 2013)

Tests used:
[1] = system: TNFα-induced gene expression in Human Microvascular Endothelial Cells (HMEC); assay: Microarray study of TNFα-induced gene expression in HMEC; type: cell-based
Method: Effects of BDMC/Curcumin/Curcuminoids were Studied in TNFα-Induced Gene Expression in Human Microvascular Endothelial Cells (HMEC):
Micro array analysis was carried out to identify the sets of gene differentially expressed in TNFα treated endothelial cells pretreated/not pretreated with demethylated curcuminoids (BMDC, curcumin)/with curcuminoids. Data acquisition and image processing were performed using GCOS (Gene Chip Operating Software, Affymetrix). Genes that were >2.0 fold up regulated in TNFα-treated group compared to TNFα untreated control group were selected and subjected to hierarchical clustering. […] These sub-clusters were subjected to further functional analysis using DAVID (Database for Annotation, Visualization and Integrated Discovery NIAID, NIH) (FIG. 10, 11). Major known pathways (KEGG, Kyoto Encyclopedia of Genes and Genomes) identified in each of the cluster have been illustrated as pathway maps marking the candidate genes.
GeneChip™ screening of TNFα-inducible transcriptome of HMEC identified 1195 probe sets that were induced by a magnitude of two-fold or higher.

[2] = Particle size distribution study (Malvern particle size analyzer, laser diffraction); type: physicochemical; conditions: nanoemulsified vs unformulated
Method: This study proves that a curcumin molecule which is originally 374 nm in the unformulated form is emulsified into 8-11 nm sized particles through a unique process, which has been indicated for this enhanced transport and efficacy of curcumin through the formulation. The study was conducted using Malvern particle size analyzer. The map of scattering intensity versus angle is the primary source of information used to calculate the particle size. The scattering of particles is accurately predicted by the Mie scattering model allowing accurate sizing across the widest possible dynamic range. During the laser diffraction measurement, particles are passed through a focused laser beam. These particles scatter light at an angle that is inversely proportional to their size. The angular intensity of the scattered light is then measured by a series of photosensitive detectors. The advantage of this study is that there is no sample preparation involved. […] Additional peaks can be observed which is contributed by the high molecular weight excipients used to prepare the formulation.

phosphorylase kinase = conditions: Reddy & Aggarwal, FEBS Lett 1994; cited from earlier work
psoriasis = conditions: Heng et al., Br J Dermatol 2000; cited from earlier work

| particle size [2] | particle size ([2]; listed as unformulated curcumin 98%) | Structure (SMILES) | effect on TNFα ([1]; HMEC challenged with TNFα) | number of TNFα inducible genes sensitive to the substance ([1]; microvascular endothelial cells challenged with TNFα, 1195 probe sets induced two-fold or higher) | phosphorylase kinase inhibition (phosphorylase kinase) | resolution of psoriasis (psoriasis) |
| --- | --- | --- | --- | --- | --- | --- |
|  |  | O=C(/C=C/c1ccc(O)c(O)c1)CC(=O)/C=C/c1ccc(O)c(O)c1 [bis-O-demethyl curcumin, Bis-O-Demethyl curcumin] | antagonizing effects on TNFα | 1065 genes |  |  |
| 374 nm | 373 nm | COc1cc(/C=C/C(=O)CC(=O)/C=C/c2ccc(O)c(OC)c2)ccc1O [curcumin] |  |  | selective phosphorylase kinase inhibitor | leads to resolution of psoriasis |
